Test system: Energy system protein genes
Test: DNA chip mRNA expression in yeast, energy system protein genes (Table 4)
Format: cell-based, Saccharomyces cerevisiae S288C
Procedure, shortened: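 Expression change after 2 h toxicant exposure (growth-inhibiting, sub-lethal) of log-phase S. cerevisiae S288C at 25° C. Oligo-dT-purified mRNA was labeled with Cy3-dUTP or Cy5-dUTP and hybridized >12 h at 65° C. to a genome-wide chip; ratio of scanned fluorescence to control.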

Oc1cc(Cl)c(Cl)cc1Cl [(6), 2,4,5-trichlorophenol]
The level of expressed mRNA in the presence of chemical substance/The level of expressed mRNA in the absence of chemical substance (yeast gene YJR048W): 0.5
The level of expressed mRNA in the presence of chemical substance/The level of expressed mRNA in the absence of chemical substance (yeast gene YJR121W, cells incubated two hours with the chemical substance): 1.5
The level of expressed mRNA in the presence of chemical substance/The level of expressed mRNA in the absence of chemical substance (yeast gene YJR155W): 1.4
The level of expressed mRNA in the presence of chemical substance/The level of expressed mRNA in the absence of chemical substance (yeast gene YKL016C, cells incubated two hours with the chemical substance): 0.8
The level of expressed mRNA in the presence of chemical substance/The level of expressed mRNA in the absence of chemical substance (yeast gene YKL035W): 1.2
The level of expressed mRNA in the presence of chemical substance/The level of expressed mRNA in the absence of chemical substance (yeast gene YKL060C, cells incubated two hours with the chemical substance): 1.3
The level of expressed mRNA in the presence of chemical substance/The level of expressed mRNA in the absence of chemical substance (yeast gene YKL141W, cells incubated two hours with the chemical substance): 1.2
The level of expressed mRNA in the presence of chemical substance/The level of expressed mRNA in the absence of chemical substance (yeast gene YKL148C, cells incubated two hours with the chemical substance): 0.5
The level of expressed mRNA in the presence of chemical substance/The level of expressed mRNA in the absence of chemical substance (yeast gene YKL152C): 1.6
The level of expressed mRNA in the presence of chemical substance/The level of expressed mRNA in the absence of chemical substance (yeast gene YKR009C, cells incubated two hours with the chemical substance): 1.8
The level of expressed mRNA in the presence of chemical substance/The level of expressed mRNA in the absence of chemical substance (yeast gene YKR058W, cells incubated two hours with the chemical substance, 25° C., YPD medium): 1.4
The level of expressed mRNA in the presence of chemical substance/The level of expressed mRNA in the absence of chemical substance (yeast gene YKR097W): 1.7
The level of expressed mRNA in the presence of chemical substance/The level of expressed mRNA in the absence of chemical substance (yeast gene YLL041C, cells incubated two hours with the chemical substance): 1.2
The level of expressed mRNA in the presence of chemical substance/The level of expressed mRNA in the absence of chemical substance (yeast gene YLR038C, cells incubated two hours with the chemical substance): 1.2
The level of expressed mRNA in the presence of chemical substance/The level of expressed mRNA in the absence of chemical substance (yeast gene YLR044C, cells incubated two hours with the chemical substance): 1.5
The level of expressed mRNA in the presence of chemical substance/The level of expressed mRNA in the absence of chemical substance (yeast gene YLR134W, cells incubated two hours with the chemical substance): 2.5
The level of expressed mRNA in the presence of chemical substance/The level of expressed mRNA in the absence of chemical substance (yeast gene YLR258W, cells incubated two hours with the chemical substance): 1.8
The level of expressed mRNA in the presence of chemical substance/The level of expressed mRNA in the absence of chemical substance (yeast gene YLR284C, cells incubated two hours with the chemical substance): 0.9
The level of expressed mRNA in the presence of chemical substance/The level of expressed mRNA in the absence of chemical substance (yeast gene YLR295C, cells incubated two hours with the chemical substance, 25° C., YPD medium): 1.1
The level of expressed mRNA in the presence of chemical substance/The level of expressed mRNA in the absence of chemical substance (yeast gene YLR304C, cells incubated two hours with the chemical substance): 1.9
The level of expressed mRNA in the presence of chemical substance/The level of expressed mRNA in the absence of chemical substance (yeast gene YLR345W): 1.6
The level of expressed mRNA in the presence of chemical substance/The level of expressed mRNA in the absence of chemical substance (yeast gene YLR354C, cells incubated two hours with the chemical substance): 1.5
The level of expressed mRNA in the presence of chemical substance/The level of expressed mRNA in the absence of chemical substance (yeast gene YLR377C, cells incubated two hours with the chemical substance): 0.7
The level of expressed mRNA in the presence of chemical substance/The level of expressed mRNA in the absence of chemical substance (yeast gene YLR395C, cells incubated two hours with the chemical substance): 0.4
The level of expressed mRNA in the presence of chemical substance/The level of expressed mRNA in the absence of chemical substance (yeast gene YML054C): 1.8
The level of expressed mRNA in the presence of chemical substance/The level of expressed mRNA in the absence of chemical substance (yeast gene YML087C): 0.9
The level of expressed mRNA in the presence of chemical substance/The level of expressed mRNA in the absence of chemical substance (yeast gene YML100W): 2.8
The level of expressed mRNA in the presence of chemical substance/The level of expressed mRNA in the absence of chemical substance (yeast gene YML120C, cells incubated two hours with the chemical substance): 0.6
The level of expressed mRNA in the presence of chemical substance/The level of expressed mRNA in the absence of chemical substance (yeast gene YML125C): 1.3
The level of expressed mRNA in the presence of chemical substance/The level of expressed mRNA in the absence of chemical substance (yeast gene YML129C, cells incubated two hours with the chemical substance): 1.7
The level of expressed mRNA in the presence of chemical substance/The level of expressed mRNA in the absence of chemical substance (yeast gene YMR073C, cells incubated two hours with the chemical substance): 0.9
The level of expressed mRNA in the presence of chemical substance/The level of expressed mRNA in the absence of chemical substance (yeast gene YMR089C): 1.2
The level of expressed mRNA in the presence of chemical substance/The level of expressed mRNA in the absence of chemical substance (yeast gene YMR105C): 2.8
The level of expressed mRNA in the presence of chemical substance/The level of expressed mRNA in the absence of chemical substance (yeast gene YMR118C): 2.0
The level of expressed mRNA in the presence of chemical substance/The level of expressed mRNA in the absence of chemical substance (yeast gene YMR205C, cells incubated two hours with the chemical substance): 1.2
The level of expressed mRNA in the presence of chemical substance/The level of expressed mRNA in the absence of chemical substance (yeast gene YMR261C, cells incubated two hours with the chemical substance): 0.6
The level of expressed mRNA in the presence of chemical substance/The level of expressed mRNA in the absence of chemical substance (yeast gene YMR267W, cells incubated two hours with the chemical substance, 25° C., YPD medium): 1.4
The level of expressed mRNA in the presence of chemical substance/The level of expressed mRNA in the absence of chemical substance (yeast gene YMR323W, cells incubated two hours with the chemical substance): 0.4
The level of expressed mRNA in the presence of chemical substance/The level of expressed mRNA in the absence of chemical substance (yeast gene YNL071W): 1.3
The level of expressed mRNA in the presence of chemical substance/The level of expressed mRNA in the absence of chemical substance (yeast gene YNL202W, cells incubated two hours with the chemical substance): 2.0
The level of expressed mRNA in the presence of chemical substance/The level of expressed mRNA in the absence of chemical substance (yeast gene YNL237W): 4.6
The level of expressed mRNA in the presence of chemical substance/The level of expressed mRNA in the absence of chemical substance (yeast gene YNL241C): 0.9
The level of expressed mRNA in the presence of chemical substance/The level of expressed mRNA in the absence of chemical substance (yeast gene YNL331C): 1.8
The level of expressed mRNA in the presence of chemical substance/The level of expressed mRNA in the absence of chemical substance (yeast gene YOL086C, cells incubated two hours with the chemical substance): 1.7
The level of expressed mRNA in the presence of chemical substance/The level of expressed mRNA in the absence of chemical substance (yeast gene YOL165C): 1.7
The level of expressed mRNA in the presence of chemical substance/The level of expressed mRNA in the absence of chemical substance (yeast gene YOR142W, cells incubated two hours with the chemical substance): 1.6
The level of expressed mRNA in the presence of chemical substance/The level of expressed mRNA in the absence of chemical substance (yeast gene YOR178C, cells incubated two hours with the chemical substance): 2.7
The level of expressed mRNA in the presence of chemical substance/The level of expressed mRNA in the absence of chemical substance (yeast gene YOR388C, cells incubated two hours with the chemical substance): 1.4
The level of expressed mRNA in the presence of chemical substance/The level of expressed mRNA in the absence of chemical substance (yeast gene YPL031C, cells incubated two hours with the chemical substance): 1.8
The level of expressed mRNA in the presence of chemical substance/The level of expressed mRNA in the absence of chemical substance (yeast gene YPL061W, cells incubated two hours with the chemical substance): 1.7
The level of expressed mRNA in the presence of chemical substance/The level of expressed mRNA in the absence of chemical substance (yeast gene YPL088W): 7.1
The level of expressed mRNA in the presence of chemical substance/The level of expressed mRNA in the absence of chemical substance (yeast gene YPL171C): 1.3
The level of expressed mRNA in the presence of chemical substance/The level of expressed mRNA in the absence of chemical substance (yeast gene YPL240C): 1.2
The level of expressed mRNA in the presence of chemical substance/The level of expressed mRNA in the absence of chemical substance (yeast gene YPL262W, cells incubated two hours with the chemical substance): 1.6
The level of expressed mRNA in the presence of chemical substance/The level of expressed mRNA in the absence of chemical substance (yeast gene YPL275W, cells incubated two hours with the chemical substance): 1.0
The level of expressed mRNA in the presence of chemical substance/The level of expressed mRNA in the absence of chemical substance (yeast gene YPL276W, cells incubated two hours with the chemical substance): 1.1
The level of expressed mRNA in the presence of chemical substance/The level of expressed mRNA in the absence of chemical substance (yeast gene YPR048W, cells incubated two hours with the chemical substance): 0.6
The level of expressed mRNA in the presence of chemical substance/The level of expressed mRNA in the absence of chemical substance (yeast gene YPR184W, cells incubated two hours with the chemical substance): 1.5
